Measured values from patent US20200383985A1, “Inhibitors of Protease Activated Receptor-2” (Endosome Therapeutics, Inc., priority 2017, published 2020).
Starred links: 1 amine or outer side, 2 acyl side, 3 side chain; linkers in the order of their positions; H or OH if unused. Positions of bridges follow the written chain, without caps; N, C: chain ends. Non-standard residues stand in square brackets, D forms with d. Residues, ends and D or L forms follow the SMILES beside them. *: point of attachment. Leu(3R-OH,Nα-propionyl) = CCC(=O)N[C@H](C(=O)*)[C@H](O)C(C)C; X1 = CC(C)[C@@H](O[*:3])[C@H](N[*:1])C(=O)[*:2]; NMeT = CN[C@H](C(=O)O)[C@@H](C)O; dPhLac = O=C(O)[C@H](O)Cc1ccccc1; NMeA = CN[C@@H](C)C(=O)O; NMeDha = C=C(NC)C(=O)O

Experiments:
Assay type in all cases: cell-based
mouse DRG neurons [1] = assay: Patch clamp rheobase of DRG neurons: protease-induced hyperexcitability of nociceptors; conditions: PD98059 50 μM, GF109203X 10 μM
mouse DRG neurons [2] = assay: Patch clamp rheobase of DRG neurons: IBS-D biopsy supernatant-induced hyperexcitability; conditions: I-343 10 μM, Dy4 30 μM, PD98059 50 μM
Method: An investigation as whether proteases from mucosal biopsies of IBS patients cause a persistent hyperexcitability of nociceptors was conducted by a mechanism that entails endosomal signaling of PAR2. Biopsies of colonic mucosa from patients with diarrhea-predominant IBS (IBS-D) or healthy control (HC) subjects were placed in culture medium (24 h, 37° C.). Mouse DRG neurons were then exposed to biopsy supernatants (30 min, 37° C.) and washed. Rheobase was measured 30 min after washing to assess persistent hyperexcitability. Supernatants of biopsies from IBS-D patients caused a persistent decrease in rheobase, consistent with hyperexcitability, when compared to supernatants from HC subjects (rheobase at 30 min: HC, 78.33±4.41 pA, 12 neurons, supernatant from 4 HC; IBS-D, 54.55±4.74 pA, 11 neurons, supernatant from 4 IBS-D; P<0.05; ANOVA, Tukey's multiple comparisons test) (FIG. 6A, B). I-343 (10 μM), Dy4 (dynamin inhibitor, 30 μM) and PD98059 (MEK1 inhibitor, 50 μM) abolished IBS-D-induced hyperexcitability of nociceptors (FIG. 6A-D).
The Queen's University Human Ethics Committee approved human studies. All subjects gave informed consent. Endoscopic biopsies were obtained from the descending colon of 13 adult IBS-D patients (12 female) diagnosed using ROME III criteria for diarrhea predominant IBS and of 12 health controls. All IBS patients had symptoms greater than 1 year and most were greater than 5 years. Celiac disease was excluded by blood test and patients over 40 years with daily diarrhea were biopsied at the time of colonoscopy to exclude microscopic colitis. […] Biopsies (8 samples per patient) were incubated in 250 μl of RPMI medium containing 10% fetal calf serum, penicillin/streptomycin and gentamicin/amphotericin B (95% O2/5% […], 24 h, 37° C.). Supernatants were stored at −80° C. Supernatants from 4-6 patients were pooled and studied in individual experiments.
DRG innervating the colon (T9-T13) were collected from C57BL/6 mice. Ganglia were digested by incubation in collagenase IV (1 mg/ml, Worthington) and dispase (4 mg/ml, Roche) (10 min, 37° C.). DRG were triturated with a fire-polished Pasteur pipette, and further digested (5 min, 37° C.). Neurons were washed, plated onto laminin- (0.017 mg/ml) and poly-D-lysine- (2 mg/ml) coated glass coverslips, and were maintained in F12 medium containing 10% fetal calf serum, penicillin and streptomycin (95% air, 5% CO2, 16 h, 37° C.) until retrieval for electrophysiological studies.
Small-diameter (<30 pF capacitance) neurons were studied because they display characteristics of nociceptors (Valdez-Morales E. E. et al., Am J Gastroenterol 2013, 108(10): 1634-1643). Changes in excitability were quantified by measuring rheobase. Whole-cell perforated patch-clamp recordings were made using Amphotericin B (240 μg/ml, Sigma Aldrich) in current clamp mode at room temperature. The recording chamber was perfused with external solution at 2 ml/min. Recordings were made using Multiclamp 700B or Axopatch 200B amplifiers, digitized by Digidata 1440A or 1322A, and processed using pClamp 10.1 software (Molecular Devices). Solutions had the composition (mM): pipette—K-gluconate 110, KC130, HEPES 10, MgCl2 1, CaCl2 2; pH 7.25 with 1 M KOH; external—NaCl 140, KCl 5 HEPES 10, glucose 10, MgCl2 1, CaCl2 2; pH to 7.3-7.4 with 3 M NaOH. […] Neurons were also preincubated with trypsin (50 nM, 10 min), NE (390 nM, 30 min), CS (500 nM, 60 min), or vehicle (37° C.), and washed. Rheobase was measured at T 0 or T 30 min after washing. To investigate mechanisms of protease-evoked effects, neurons were incubated with I-343 (100 nM, 300 nM, 10 μM, 30 min preincubation), SCH79797 (1 μM, 10 min), Dy4 (30 μM, 30 min), PS2 (15 μM, 30 min), PD98059 (50 μM, 30 min), GF109203X (10 μM, 30 min), or vehicle (preincubation and inclusion throughout). In experiments using the tripartite antagonist, neurons were preincubated with Compound 10 (30 μM, 60 min, 37° C.) or vehicle and washed. […]

[3] = system: cytosolic and nuclear ERK; assay: FRET assays of cytosolic and nuclear ERK in HEK293 cells; conditions: UBO-QIC 100 nM, G66983 1 μM
Method: Trypsin-induced ERK signaling mediated by endosomal PAR2 signaling was investigated in HEK293 cells expressing Flag-PAR2-HA11 and FRET biosensors for cytosolic and nuclear ERK (CytoEKAR, NucEKAR), plasma membrane and cytosolic PKC (pmCKAR, CytoCKAR), and plasma membrane and cytosolic cAMP (pmEpac, CytoEpac). […] I-343 (10 μM) but not SCH530348 (100 nM) inhibited trypsin activation of cytosolic and nuclear ERK (FIG. 5G). PS2 and DynK44E inhibited trypsin-stimulated activation of cytosolic and nuclear ERK when compared to PS2 inact and DynWT controls (FIG. 5H, 5I, 17G-J). AG1478 (1 μM), an inhibitor of EGF receptor tyrosine kinase (Levitzki, A. & Gazit, A. Science 1995, 267(5205): 1782-1788), UBO-QIC (100 nM), which inhibits Gαq and certain Gβγ signals ([…]), and G66983 (1 μM), which inhibits all isoforms of PKC (Gschwendt, M, et al., FEBS Lett 1996, 392(2): 77-80), suppressed trypsin-stimulated activation of cytosolic ERK (FIGS. 5J and 17K).
HEK293 cells were cultured in DMEM supplemented with 10% (v/v) FBS (5% CO2, 37° C.). When necessary serum restriction was achieved by replacing culture medium with DMEM containing 0.5% FBS overnight. Cells were transiently transfected using polyethylenimine (PEI) (1:6 DNA:PEI).
HEK293 cells were transiently transfected in 10 cm dishes (˜50% confluency) with Flag-PAR2-HA (2.5 μg) and FRET biosensors CytoEKAR or NucEKAR (2.5 μg) (Jensen, D. D. et al., Sci Transl Med. 2017, 9(392), eaal3447; Thomsen, A. R. B., et al., Cell 2016, 166(4): 907-919). In experiments examining the role of dynamin, cells were transfected with FLAG-PAR2-HA (1.25 μg), FRET biosensor (1.25 μg) and either DynWT-HA, DynK44E-HA or pcDNA3.1 (2.5 μg). At 24 h after transfection, cells were seeded on ViewPlate-96 well plates (PerkinElmer). FRET was assessed 72 h post-transfection, following overnight serum restriction. Cells were equilibrated in HBSS-HEPES (30 min, 37° C.). FRET was measured using a PHERAstar FSX Microplate Reader (BMG LabTech). For CFP/YFP emission ratio analysis, cells were sequentially excited using a CFP filter (425/10 nm) with emission measured using YFP (550/50 nm) and CFP (490/20 nm) filters. FRET was measured before and after stimulation with trypsin (10 nM), NE (100 nM), CS (100 nM), phorbol 12,13-dibutyrate, PDBu (positive control, 1 μM), or vehicle. FRET ratios (donor/acceptor intensity for EKAR, or acceptor/donor intensity for CKAR and Epac) were calculated and corrected to baseline and vehicle treatments to determine ligand-induced FRET (ΔFRET). Treatment effects were determined by comparison of area under the curve values. Signalling inhibitors were dissolved in HBSS-HEPES. PS2 and PS2 inact were dissolved in HBSS-HEPES+1% DMSO. Cells were incubated with UBO-QIC (100 nM), AG1478 (1 μM), G66983 (1 μM), PS2 or PS2 inact (30 μM) or vehicle (30 min preincubation, inclusion throughout).

COc1cccc(-c2cc(=O)c3ccccc3o2)c1N [PD98059]
initial trypsin-induced hyperexcitability (mouse DRG neurons [1]): did not affect
persistent trypsin-induced hyperexcitability (mouse DRG neurons [1]): prevented
IBS-D-induced hyperexcitability of nociceptors (mouse DRG neurons [2]): abolished
rheobase of neurons exposed to HC supernatant (mouse DRG neurons [2]): no effect

C=C1C(=O)N[C@@H](C)C(=O)N(C)[C@@H](C)C(=O)N[C@@H]([C@H](OC(=O)[C@@H](NC(=O)CC)[C@H](O)C(C)C)C(C)C)C(=O)N(C)[C@@H]([C@@H](C)OC)C(=O)O[C@H](C(C)C)[C@H](NC(C)=O)C(=O)O[C@H](Cc2ccccc2)C(=O)N1C [UBO-QIC] (Ac-[X1][dPhLac][NMeDha]A[NMeA][X1](Leu(3R-OH,Nα-propionyl))[NMeT](Me); ester 1-C)
trypsin-stimulated activation of cytosolic ERK ([3]; AG1478 1 μM): suppressed
trypsin-stimulated activation of nuclear ERK [3]: inhibited
